Some test systems named below: A549; COLO 205; HCT-116; HCT-15; Hs-578T; K562; M14; MOLT-4; Malme-3M; NCI-H226; PC-3; SK-OV-3; T47D; U-251; UACC-62; UO-31; NCI-H522; OVCAR-3; SR.
Holding throughout (assay): NCI-60 cell line screen, 48 h

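Compound exposure: 48 hours, 5 concentrations, 96-well plates. GI50 is the concentration that inhibits growth by half.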 The source made the active and inactive calls. No stated cut-off is given here; in the data, active = GI50 up to about 1.1 µM and inactive = higher.

Turning to `COc1cc2c(cc1O)C1Cc3ccc(OC)c(O)c3C[N+]1(C)CC2` (stereo not drawn), the GI50 in the test with A549 is > 100 µM (inactive); in the test with COLO 205, > 100 µM (inactive); in the test on HCT-116 it was > 100 µM (inactive); in the test with HCT-15 it was above 100 µM; in the test with Hs-578T, > 100 µM (inactive); in the test with K562 it was 58.3 µM (inactive). For the same molecule, the GI50 with M14, with MOLT-4, with Malme-3M, in the test with NCI-H226, in the test on PC-3 and in the test with SK-OV-3 was > 100 µM (inactive) each time. In addition, the GI50 in the test on T47D, with U-251, in the test with UACC-62 and with UO-31 was > 100 µM (inactive) each time.
With `CCCCOC(=O)C1C(c2ccc(Cl)cc2)NC(c2ccc(Cl)cc2)C(C(=O)OCCCC)S1(=O)=O` (stereo not drawn), the GI50 with A549 was > 100 µM (inactive); with COLO 205, > 100 µM (inactive); in the test on HCT-15 it was above 100 µM; with K562, > 100 µM (inactive); in the test on M14, > 100 µM (inactive); in the test with MOLT-4, > 100 µM (inactive). Also, the GI50 with Malme-3M, with NCI-H226, in the test on NCI-H522, in the test with OVCAR-3, in the test on SK-OV-3 and in the test with SR was > 100 µM (inactive) throughout. Further, the GI50 in the test with U-251, with UACC-62 and with UO-31 was > 100 µM (inactive) throughout.
`C/C=C\C(CC(=O)NCCC1CN(S(=O)(=O)c2ccc(C)cc2)c2ccccc21)CC(=O)OC` (stereo not drawn): the GI50 in the test on A549 was > 100 µM (inactive); with COLO 205, > 100 µM (inactive); in the test with HCT-116, > 100 µM (inactive); with HCT-15 it was above 100 µM; with Hs-578T, > 100 µM (inactive); in the test on K562 it was > 100 µM (inactive). The GI50 in the test on M14, in the test with MOLT-4, in the test with Malme-3M, in the test with NCI-H522, in the test with OVCAR-3 and with PC-3 was > 100 µM (inactive) throughout. The GI50 with SK-OV-3, in the test with T47D, in the test with U-251, with UACC-62 and with UO-31 was > 100 µM (inactive) in each case.
Regarding `CCOC1=C2N=C(C(CC)c3ccccc3F)N=C2C(=O)c2ccccc21` (stereo not drawn), the GI50 with A549 was > 100 µM (inactive); in the test on COLO 205, > 100 µM (inactive); in the test with HCT-116, > 100 µM (inactive); in the test on HCT-15 it was above 100 µM; in the test with K562, > 100 µM (inactive); with M14 it was > 100 µM (inactive). In addition, the GI50 in the test with MOLT-4 is 24 µM (inactive); in the test on Malme-3M, > 100 µM (inactive); in the test on NCI-H226, > 100 µM (inactive); in the test on NCI-H522, > 100 µM (inactive); in the test with OVCAR-3 it was > 100 µM (inactive); in the test on SR it was > 100 µM (inactive). The GI50 in the test with U-251 was 8.45 µM (inactive); in the test on UACC-62, > 100 µM (inactive); in the test with UO-31, > 100 µM (inactive).
As to `Cc1ccc(OCCn2cc(Nc3ccccc3)c(=O)n(CCOc3ccc(C)cc3)c2=O)cc1`, the GI50 in the test on A549 was 28.8 µM (inactive); in the test on COLO 205, > 100 µM (inactive); in the test with HCT-116, > 100 µM (inactive); in the test with HCT-15 it was above 100 µM; in the test on Hs-578T, 67.6 µM (inactive); in the test on K562 it was 70.5 µM (inactive). Moreover, the GI50 in the test on M14 is > 100 µM (inactive); with MOLT-4, 67.1 µM (inactive); in the test with Malme-3M, 80 µM (inactive); in the test on NCI-H226, > 100 µM (inactive); in the test with NCI-H522 it was 97.7 µM (inactive); with OVCAR-3 it was > 100 µM (inactive). Moreover, the GI50 with PC-3 is 93.5 µM (inactive); with T47D, > 100 µM (inactive); in the test on U-251, 51.6 µM (inactive); in the test with UACC-62, > 100 µM (inactive); in the test on UO-31, > 100 µM (inactive).
Turning to `O=C(c1ccccc1)c1c(CNCc2ccccc2)n(C(=O)c2ccccc2)c2ccccc12`, the GI50 with A549 was 22.4 µM (inactive); in the test on COLO 205, 47 µM (inactive); in the test on HCT-116 it was 8.67 µM (inactive); with HCT-15, 28.8 µM; in the test with K562, 6.37 µM (inactive); with M14, 34.4 µM (inactive). Moreover, the GI50 in the test with MOLT-4 is 7.43 µM (inactive); with Malme-3M, 77.1 µM (inactive); in the test on NCI-H226, 29.6 µM (inactive); with NCI-H522, 4.52 µM (inactive); with OVCAR-3, 15.4 µM (inactive); in the test with SR, 6.58 µM (inactive). For the same molecule, the GI50 with U-251 was 20.8 µM (inactive); in the test with UACC-62, 95.3 µM (inactive); with UO-31, 8.95 µM (inactive).
Turning to `Cc1cc2c(C)nn(Cc3ccccc3Cl)c2c(C#N)c1C`, the GI50 in the test with A549 is > 100 µM (inactive); in the test with COLO 205, > 100 µM (inactive); in the test on HCT-116, > 100 µM (inactive); in the test on HCT-15 it was above 100 µM; in the test with MOLT-4, > 100 µM (inactive); with Malme-3M, > 100 µM (inactive). Besides, the GI50 in the test with NCI-H226, in the test with OVCAR-3, in the test on SK-OV-3, with SR, in the test with U-251 and with UACC-62 was > 100 µM (inactive) throughout. Besides, in the test on UO-31, the GI50 was > 100 µM (inactive).
Consider `O=C1[C@H](O)[C@@H]2C(O)O[C@H]3[C@@H]2N1C[C@H]3[Si](c1ccccc1)(c1ccccc1)c1ccccc1` (stereo partly drawn), for which the GI50 with A549 was > 100 µM (inactive); with COLO 205 it was > 100 µM (inactive); in the test with HCT-116, > 100 µM (inactive); in the test with HCT-15 it was above 100 µM; in the test on K562, > 100 µM (inactive); in the test on M14, > 100 µM (inactive). In addition, the GI50 in the test with MOLT-4, in the test with NCI-H226, in the test with OVCAR-3, with PC-3, with SK-OV-3 and in the test on SR was > 100 µM (inactive) throughout. In addition, the GI50 with T47D is 29.1 µM (inactive); in the test with U-251, > 100 µM (inactive); with UACC-62, > 100 µM (inactive); with UO-31, > 100 µM (inactive).
Turning to `CC(=O)OCC1OC(n2c(C)c(C(C)=O)c(-c3cccc4ccccc34)c(C#N)c2=S)C(OC(C)=O)C(OC(C)=O)C1OC(C)=O` (stereo not drawn), the GI50 with A549 was > 100 µM (inactive); in the test on COLO 205, > 100 µM (inactive); in the test with HCT-116 it was > 100 µM (inactive); in the test with HCT-15 it was above 100 µM; in the test with K562, > 100 µM (inactive); with M14, > 100 µM (inactive). For the same molecule, the GI50 in the test with MOLT-4, in the test on Malme-3M, with NCI-H226, in the test with NCI-H522, in the test with OVCAR-3 and with PC-3 was > 100 µM (inactive) in each case. For the same molecule, the GI50 is > 100 µM (inactive) in the test with SK-OV-3; > 100 µM (inactive) in the test on SR; > 100 µM (inactive) in the test on T47D; > 100 µM (inactive) in the test with U-251; > 100 µM (inactive) in the test with UACC-62; < 0.01 µM (active) with UO-31.
For the molecule `C=CCNC(=S)NNC(=O)c1c(C)nc2sccn12`, the GI50 was > 100 µM (inactive) in the test with A549; > 100 µM (inactive) in the test with COLO 205; > 100 µM (inactive) in the test with HCT-116; above 100 µM with HCT-15; > 100 µM (inactive) in the test with K562; > 100 µM (inactive) in the test on MOLT-4. Besides, the GI50 in the test with Malme-3M, with NCI-H226, in the test on NCI-H522, with OVCAR-3, with SK-OV-3 and in the test on SR was > 100 µM (inactive) throughout. Moreover, the GI50 in the test with U-251 and with UACC-62 was > 100 µM (inactive) each time.
Consider `N#CCCN(CCC#N)c1ccc(/C=C2\N=C(c3ccccc3)N(NC(=O)c3ccncc3)C2=O)cc1`, for which the GI50 in the test with A549 is > 100 µM (inactive); in the test on COLO 205, > 100 µM (inactive); in the test on HCT-116, > 100 µM (inactive); with HCT-15, above 100 µM; with Hs-578T, > 100 µM (inactive); in the test on K562, 49.2 µM (inactive). Also, the GI50 in the test with M14, with MOLT-4, with NCI-H226, in the test on OVCAR-3, with PC-3 and in the test on SK-OV-3 was > 100 µM (inactive) each time. Further, the GI50 in the test on T47D, in the test with U-251, in the test with UACC-62 and with UO-31 was > 100 µM (inactive) each time.
Consider `Cc1nc(O)nc(N/N=C/c2c3ccccc3c(Cl)c3ccccc23)c1C(=O)Nc1ccc(Cl)cc1`, for which the GI50 was 63.4 µM (inactive) with A549; 65.9 µM (inactive) with HCT-116; above 100 µM with HCT-15; 68.5 µM (inactive) in the test on K562; 79.3 µM (inactive) in the test with M14; 31.3 µM (inactive) in the test with MOLT-4. Also, the GI50 is > 100 µM (inactive) in the test on Malme-3M; 74 µM (inactive) in the test on NCI-H226; > 100 µM (inactive) in the test with NCI-H522; 58.3 µM (inactive) in the test with OVCAR-3; 10.8 µM (inactive) with PC-3; 38.5 µM (inactive) with SR. Also, the GI50 is > 100 µM (inactive) in the test on T47D, 37.9 µM (inactive) in the test with U-251, 50.5 µM (inactive) in the test on UACC-62 and > 100 µM (inactive) in the test on UO-31.

These data come from ChEMBL document CHEMBL1201862, “PubChem BioAssay data set” (2004).
